These results are taken from the Deep4Chem optical property database.

This data set in a line: photoluminescence quantum yield (fraction); solvent given as SMILES.
Setting [1] is: in O=P(c1ccccc1)(c1ccccc1)c1ccccc1Oc1ccccc1P(=O)(c1ccccc1)c1ccccc1.

Regarding `C(=C\c1ccncn1)/c1ccc(N(c2ccccc2)c2ccc(/C=C/c3ccncn3)cc2)cc1`, the photoluminescence quantum yield (in ClCCl) worked out at 0.73.

As to `Cc1ccc(C2CC(c3ccc(O)cc3)=NN2c2ccc(S(N)(=O)=O)cc2)cc1` (stereo unspecified), the photoluminescence quantum yield was 0.7 (in C1CCOC1); 0.73 (in C1COCCO1); 0.64 (in CC#N); 0.5 (in CC(C)O); 0.43 (in CCO); 0.68 (in CCOC(C)=O). Also, the photoluminescence quantum yield by setting is: (in CN(C)C=O) 0.76; (in CO) 0.33; (in CS(C)=O) 0.82; (in O) 0.55.

Compound `CCOC(=O)CSc1nc(C)c(CC)c(C#N)c1C#N` returned a photoluminescence quantum yield (in c1ccccc1) of 0.034.

With `CCOC(=O)CN1C(=O)C2=C(c3ccccc3)N(CC(=O)OCC)C(=O)C2=C1c1ccccc1`, the photoluminescence quantum yield reads like this: (in CC#N) 0.31; (in CS(C)=O) 0.56; (in Cc1ccccc1) 0.36.

In turn, `O=P1(c2ccccc2)C2=C(c3ccccc31)[Si](c1ccccc1)(c1ccccc1)c1cc(N(c3ccccc3)c3ccccc3)ccc12` (stereo unspecified) gave a photoluminescence quantum yield (in CC#N) of 0.52, a photoluminescence quantum yield (in CO) of 0.17 and a photoluminescence quantum yield (in Cc1ccccc1) of 0.86.

In the case of `F[Si](c1c2ccccc2cc2ccccc12)(c1c2ccccc2cc2ccccc12)c1c2ccccc2cc2ccccc12`, the photoluminescence quantum yield is 0.033 (in C1CCOC1) and 0.036 (in ClC(Cl)Cl).

As to `CCCCCCCCc1ccc(-c2c3cc(-c4cc(CCCCCCCC)c(-c5ccc(-c6sc(/C=C7\SC(N8CCCCC8)=NC7=O)cc6CCCCCCCC)s5)s4)sc3c(-c3ccc(CCCCCCCC)s3)c3cc(-c4cc(CCCCCCCC)c(-c5ccc(-c6sc(/C=C7\SC(N8CCCCC8)=NC7=O)cc6CCCCCCCC)s5)s4)sc23)s1`, the photoluminescence quantum yield stood at 0.214 (in C1CCOC1); 0.211 (in Cc1ccccc1); 0.128 (in ClC(Cl)Cl); 0.144 (in ClCCl); 0.186 (in Clc1ccccc1).

Regarding `O=C1c2ccc(N(c3ccc(-c4ccccc4)cc3)c3ccc(-c4ccccc4)cc3)cc2C(=O)c2ccc(N(c3ccc(-c4ccccc4)cc3)c3ccc(-c4ccccc4)cc3)cc21`, the photoluminescence quantum yield is, setting by setting: (in Cc1ccccc1) 0.1; (in c1ccc2c(c1)c1ccccc1n2-c1ccc(-c2ccc(-n3c4ccccc4c4ccccc43)cc2)cc1) 0.42.

For `CCCC1=CC2=C(c3c(C)cc(C)cc3C)c3cc(CCC)c(-c4ccc5ccc6cccc7ccc4c5c67)n3[B-](F)(F)[N+]2=C1c1ccc2ccc3cccc4ccc1c2c34`, the photoluminescence quantum yield (in ClC(Cl)Cl) came out at 0.64.

The compound `O=P1(c2ccccc2)C(c2ccc(C(F)(F)F)cc2)=Cc2ccccc21` (stereo unspecified) yielded a photoluminescence quantum yield (in C1CCOC1) of 0.65.

As for `CCCCCCC(CCCCCC)n1c(=O)c2c3ccc4cccc5c6cccc7ccc(c2c1=O)c(c76)c3c45`, the photoluminescence quantum yield worked out at 0.32 (in C1CCCCC1); 0.33 (in CC#N); 0.27 (in CC(C)=O); 0.32 (in CCCCCC); 0.3 (in CCO); 0.34 (in CCOCC). This compound also returned a photoluminescence quantum yield (in CS(C)=O) of 0.44, a photoluminescence quantum yield (in Cc1ccccc1) of 0.42, a photoluminescence quantum yield (in ClC(Cl)(Cl)Cl) of 0.37 and a photoluminescence quantum yield (in ClC(Cl)Cl) of 0.35.

On to `Fc1ccc(C#Cc2c(C#Cc3ccc(F)cc3)c(C#Cc3ccc(F)cc3)c(C#Cc3ccc(F)cc3)c(C#Cc3ccc(F)cc3)c2C#Cc2ccc(F)cc2)cc1`, for which the photoluminescence quantum yield (in ClCCl) came out at 0.25.

For the setting “in ClCCl”, `c1ccc(-n2c(-c3ccc(N(c4ccc(-c5ccc(N(c6ccc(-c7nc8c9ccccc9c9ccccc9c8n7-c7ccccc7)cc6)c6ccc(-c7nc8c9ccccc9c9ccccc9c8n7-c7ccccc7)cc6)cc5)cc4)c4ccc(-c5nc6c7ccccc7c7ccccc7c6n5-c5ccccc5)cc4)cc3)nc3c4ccccc4c4ccccc4c32)cc1` came in with a photoluminescence quantum yield of 0.206.

On to `Cc1ccc(-c2ccc(/C=C/c3ccc([N+](=O)[O-])cc3)cn2)nc1`, for which the photoluminescence quantum yield (in CC#N) worked out at 0.045.

For the compound `CSc1sc(C(=O)c2ccccc2)c2nn[nH]c(=O)c12`, the photoluminescence quantum yield reads like this: (in C1CCOC1) 0.016; (in CC#N) 0.013; (in CCO) 0.0088; (in CN(C)C=O) 0.0057; (in CO) 0.0069; (in CS(C)=O) 0.0056.

`CCN(CC)c1ccc2c(-c3ccccc3C(=O)O)c3c([o+]c2c1)/C(=C/c1ccc(N(C)C)cc1)CCC3` yielded a photoluminescence quantum yield (in ClCCl) of 0.04.

`c1ccc2cc3c(cc2c1)-c1cccc2cc4ccccc4c-3c12`: under “in CCCCCCC”, the photoluminescence quantum yield turned out to be 0.52.

Consider `O=C(O)CCCc1ccc2ccc3cccc4ccc1c2c34`, for which the photoluminescence quantum yield (in CO) amounted to 0.68.

Under “in ClCCl”, `C(#Cc1nc(C#Cc2cccs2)c(C#Cc2cccs2)c(C#Cc2cccs2)c1C#Cc1cccs1)c1cccs1` showed a photoluminescence quantum yield of 0.48.

As to `CC1(C)c2ccccc2-c2cc3c4ccccc4n(-c4ccc(-c5nc(-c6ccccc6)nc(-c6ccccc6)n5)cc4)c3cc21`, the photoluminescence quantum yield under setting [1] was 0.933.

`c1ccc(-c2nc(-c3ccccc3)nc(-c3ccc(-n4c5ccccc5c5cc(-n6c7ccccc7c7ccccc76)ccc54)cc3)n2)cc1` registered a photoluminescence quantum yield (in Cc1ccccc1) of 0.72.

For the compound `CCCCN(CCCC)c1ccc2c(c1)C#CC#Cc1cc(N(CCCC)CCCC)ccc1C#Cc1cc(c3cc1C#Cc1ccc(C(F)(F)F)cc1C#CC#Cc1cc(C(F)(F)F)ccc1C#C3)C#C2`, the photoluminescence quantum yield (in ClCCl) was found to be 0.15.

`Clc1ccc(C2=C(c3ccc(Cl)cc3)c3cccc4c3c(cc3nc5ccccc5nc34)O2)cc1` returned a photoluminescence quantum yield (in ClCCl) of 0.37.

Take `CCOC(=O)c1c2c3c(ccc([N+](=O)[O-])c3c3cc4c(cc13)[Si](C)(C)O[Si]4(C)C)N(C)C2=O`: the photoluminescence quantum yield (in CC#N) came out at 0.3.

Turning to `CC(C)(C)OC(=O)NC(Cc1ccccc1)C(=O)OCc1ccc2c3cccc4cccc(c5cccc1c52)c43` (stereo unspecified), where the note is “in CCO”, the photoluminescence quantum yield worked out at 0.86.

With `COc1ccc(-c2nc(N)nc(C#N)c2C#N)cc1OC`, the photoluminescence quantum yield was found to be 0.0073 (in C1COCCO1); 0.0893 (in CC#N); 0.0272 (in CC(C)=O); 0.0105 (in CCO); 0.0185 (in CCOC(C)=O); 0.0143 (in CO).

As for `CCOC(=O)c1ccccc1-c1c2ccc(=O)cc-2oc2cc(OC(=O)[C@H](CSCc3ccc(C)cc3)NC(=O)OC(C)(C)C)ccc12`, the photoluminescence quantum yield runs as follows: (in C1CCOC1) 0.006; (in CC#N) 0.004; (in CCO) 0.043; (in CS(C)=O) 0.025.

Compound `COc1ccc2cc(C3=[N+]4C(=Nc5c(-c6ccc7ccccc7c6)c(Br)c(-c6ccc7cc(OC)ccc7c6)n5[B-]4(F)F)C(c4ccc5ccccc5c4)=C3Br)ccc2c1` displayed a photoluminescence quantum yield (in ClCCl) of 0.

As for `c1ccc(-c2nc3c4ccccc4c4ccccc4c3n2-c2ccccc2)cc1`, where the note is “in C1CCOC1”, the photoluminescence quantum yield worked out at 0.588.

For `F[B-]1(F)OC(c2ccccc2)=Cc2ccc3ccccc3[n+]21`, the photoluminescence quantum yield runs as follows: (in ClC(Cl)Cl) 0.53; (in ClCCl) 0.57.

In the case of `CCN(CC)c1ccc2c(c1)oc(=O)c1c(=O)oc3cc(C#Cc4ccc(N(C)C)cc4)ccc3c12`, the photoluminescence quantum yield (in ClCCl) stood at 0.04.

For the compound `O=C1CCCC2=C1CC1=C(CCCC1=O)N2NC(=O)c1ccccc1`, the photoluminescence quantum yield was determined as 0.33 (in C1CCOC1); 0.46 (in CC#N); 0.42 (in CC(C)=O); 0.42 (in CCCCCO); 0.34 (in CO); 0.62 (in ClC(Cl)Cl). Where the note is “in ClCCl”, the photoluminescence quantum yield was 0.31.

In the case of `C[Si](C)(c1cccc2ccccc12)[Si](C)(C)[Si](C)(C)[Si](C)(C)[Si](C)(C)[Si](C)(C)c1c2ccccc2cc2ccccc12`, the photoluminescence quantum yield is 0.5 (in C1CCCCC1) and 0.017 (in CC#N).

In turn, `O=c1c2ccccc2sc2ccc(-n3c4ccccc4c4ccccc43)cc12` gave a photoluminescence quantum yield under setting [1] of 0.512.

`Cc1ccc(-c2oc3cccc4c5c(-c6ccc(C)cc6)c(=N)oc6cccc(c2c34)c65)cc1` displayed a photoluminescence quantum yield (in ClC(Cl)Cl) of 0.1.

For the setting “in O”, `CC(=O)c1ccn2c3c(c(/C=C/c4cc[n+](C)cc4)c2c1)CN(C)C3=O` displayed a photoluminescence quantum yield of 0.041.

With `COc1c2ccccc2c(OC)c2c(C#CC(C)(C)C)c3cc4ccccc4cc3c(C#CC(C)(C)C)c12`, the photoluminescence quantum yield by setting is: (in C1CCOC1) 0.11; (in Cc1ccccc1) 0.1; (in ClCCl) 0.09.

As for `CCCCCCCCCCOc1cc(OCCCCCCCCCC)cc(C2=C3C(C)=CC(/C=C/c4ccc(OC)cc4)=[N+]3[B-](F)(F)n3c(/C=C/c4ccc(OC)cc4)cc(C=Cc4ccc(OC)cc4)c32)c1`, the photoluminescence quantum yield (in ClC(Cl)Cl) came out at 0.35.

For `c1ccc(-c2nc(-c3ccc(-c4nc(-c5ccccc5)c(-c5ccccc5)[nH]4)s3)[nH]c2-c2ccccc2)cc1`, the photoluminescence quantum yield (in CC#N) worked out at 0.55.

The compound `COCCN(CCOC)c1ccc(/C=C/c2sc3c4nc(C)sc4ccc3[n+]2C)cc1` had a photoluminescence quantum yield (in ClC(Cl)Cl) of 0.05.

Compound `C1=Cc2ccc(N(c3ccccc3)c3cccc4ccccc34)cc2C2(c3cc(N(c4ccccc4)c4cccc5ccccc45)ccc31)c1ccccc1-c1ccccc12` displayed a photoluminescence quantum yield (in ClCCl) of 0.58.

Take `Cc1cc(-n2c3ccccc3c3cc4c(cc32)C2c3ccccc3C4c3ccccc32)ccc1-c1nc(-c2ccccc2)nc(-c2ccccc2)n1`: the photoluminescence quantum yield came out at 0.8 (in Cc1ccccc1) and 0.51 under setting [1].

Consider `CC(C)[Si](C#Cc1ccc(-c2c3cccc4c5cccc6c(-c7ccc(C#C[Si](C(C)C)(C(C)C)C(C)C)cc7)c7cccc8c9cccc2c9c(c34)c(c65)c78)cc1)(C(C)C)C(C)C`, for which the photoluminescence quantum yield (in Cc1ccccc1) is 0.38.

Under “in CC#N”, `N#CC(/N=C/c1c(O)ccc2ccccc12)=C(C#N)/N=C/c1c(O)ccc2ccccc12` displayed a photoluminescence quantum yield of 0.37.
